Measured values published in patent US20110098257A1, “DERIVATIVES OF 4- OR 5-AMINOSALICYLIC ACID” (ANTIBE THERAPEUTICS INC., priority 2005, published 2011).

Key:
[1] = tested on: visceral pain in response to colorectal distension; assay: Rat model of visceral pain perception (colorectal distension, AWR score); type: in vivo, Rats (male, Wistar)
Experimental: A rat model of visceral pain perception, a pre-clinical model of irritable bowel syndrome, was used in the following example. Rats (male, Wistar, 200-250 g, obtained from Charles River, Monza, Italy), were housed in plastic cages and maintained under controlled conditions with 12-hours light/dark cycle with lights on at 7.00 AM. Tap water and standard laboratory chow were freely available. Before experiments, rats were individually trained by spending 2-3 hours per day in a plexiglass cage for 2-3 days. It allowed them to adjust to a movement-restriction environment. Food was withheld for 12 hours before colorectal distension (CRD) recording were performed. Experiments were performed in awake rats and were conducted in a blind manner in that the observer was not aware of the identity of drug administered to each animal.
In the testing day, rats were sedated with ether inhalation and a 2 cm long latex balloon was inserted intrarectally 2 cm from the anal verge and fixed at the base of the tail. The balloon was connected via a double-barreled cannula to a pressure transducer to continuously monitoring the rectal pressure by a computer (PowerLab PC, A.D. Instruments, Milford, Mass., USA) and to a syringe for inflation/deflation of the balloon. The rats were then housed in a small cage (20×8×8 cm) on an elevated Plexiglas™ platform and allowed to wake up and adapt for 1 hour. After recovery from sedation, animals underwent the CRD procedure and behavioral responses were tested. The night before the experiments, the balloons were inflated and left overnight so the latex stretched and the balloons became compliant.
CRD of 20 seconds, performed every 5 minutes, was applied in increment of 0.4 ml starting from 0.4 ml up to 1.6 ml water. To achieve an accurate measurement of the colonic parameters and perception, the distensions were repeated twice for each intensity and data for each animal were averaged for analysis. Each animal underwent a double set of CRD. Twenty minutes after the first sequence of CRD (0.4 mL-1.6 ml water), drugs were administered intraperitoneally (i.p.) and a second set of CRD was performed. Behavioral responses during the first and the second set of CRD were assessed and compared.
Behavioral response to CRD was assessed by measuring the abdominal withdrawal reflex (AWR) using a semiquantitative score (1).
The effects of mesalamine and Compound XXXV on colonic compliance and sensitivity were determined using a total of 8 fasting rats. To investigate whether the administration of mesalamine and Compound XXXV could revert pain induced by CRD, after the first sequence of CRD, […], after which a second set of CRD was repeated.
To determine the effect of mesalamine or Compound XXXV on colonic smooth muscle, the compliance of the colo-rectum during CRD was obtained from intracolo-rectal volume and pressure and expressed as mL/mmHg.
All data are presented as the mean±SEM, with sample sizes of 4 rats/group; statistical comparison of paired data was performed by the Wilcoxon signed rank test. An associated probability (p value) of less that 5% was considered significant.
A rat model of visceral pain perception as described above was used to compare pain perception scores for both Compound XXXV and Compound XXVII with or without glibenclamide, an inhibitor of ATP-sensitive K^+ (KATP) channels.

[2] = tested on: mice having TNBS-induced colitis; assay: TNBS-induced colitis in mice (disease activity score, colonic MPO activity); type: in vivo, Balb/c mice
Experimental: A standard experimental animal model of colitis induced by intracolonic administration of 2,4,6-trinitrobenzene sulfonic acid (TNBS) to mice is used in the following example. A detailed description of this model has been published (Santucci et al. (2003) Gastroenterology 124:1381-94) and is incorporated herein by reference. Briefly, 6-8 week old Balb/c mice were given TNBS intracolonically at a dose of 1.5 mg in 0.1 mL of 30% ethanol. The mice were randomized to the various treatment groups (n=6 per group). Beginning one hour later and continuing every 12 h for 5 days, the mice were treated orally with vehicle (1% carboxymethylcellulose (CMC)), 5-ASA (mesalamine) (25, 50 or 75 mg/kg) or with equimolar doses of 2-hydroxy-5-amino-benzoic acid 4-(thioxo-5H-[1,2]dithiol-3-yl)-phenyl ester hydrochloride (Compound XXXV) (130 mg/kg), or with […] (100 mg/kg), 50% (66 mg/kg) and 25% (33 mg/kg) of that dose. The mice were evaluated (blindly) on the final day of the study for the presence of diarrhea and fecal occult blood, and their body weights were measured. […] After sacrifice, a sample of the colon was excised for measurement of myeloperoxidase (MPO) activity, as a marker of granulocyte infiltration. All results were compared to those obtained with healthy mice as well.
FIGS. 3 and 4 show the Disease Activity Index and MPO activity, respectively, using the same experimental animal model of colitis as described above, in which Compound XXXV (130 mg/kg) was compared to equimolar doses of its two constituents, mesalamine (50 mg/kg) and 5-p-hydroxyphenyl-[…] (ADT-OH) (80 mg/kg), and a mixture of mesalamine (50 mg/kg) and ADT-OH (80 mg/kg). *p<0.05 versus the vehicle-treated group. Each group consisted of at least 5 rats.
FIGS. 6 and 7 show the Disease Activity Index and MPO, respectively, using the same experimental animal model of colitis as described above, in which Compound XXVII (100 mg/kg) was compared to equimolar doses of its two constituents, mesalamine (50 mg/kg) and 4-hydroxythiobenzamide (4-HTB) (50 mg/kg), mesalamine alone (50 mg/kg) and 4-HTB alone (50 mg/kg). *p<0.05 versus the vehicle-treated group. Each group consisted of at least 5 rats.
The same model was used as described above. In this example, the effects of mesalamine (50 mg/kg) were compared to those of equimolar doses of Compound XXXV. In addition to measuring the severity of colitis by measuring disease activity score and MPO activity, tissues were processed for measurement of a number of genes for inflammatory cytokines and other mediators.

Q: With Nc1ccc(O)c(C(=O)Oc2ccc(-c3cc(=S)ss3)cc2)c1 [Compound XXXV, 5-Amino-2-hydroxy-benzoic acid 4-(5-thioxo-5H-[1,2]dithiol-3-yl)-phenyl ester] as the compound, how does the intrarectal pressure ([1]; 100 mg/kg i.p., FIG. 16(b)) read?
A: Its intrarectal pressure is “successfully reduced intrarectal pressure”.

Q: And the “perception score (visceral pain in response to colorectal distension)” value ([1]; 100 mg/kg i.p., second set of CRD vs first, FIG. 15)?
A: Its value is “more effective than mesalamine (and vehicle) in reducing visceral pain”.

Q: What about the “pain perception score after glibenclamide pretreatment” value ([1]; 0.8 mL colorectal distention, 100 mg/kg, glibenclamide 10 mg/kg i.p. 30 min before, FIG. 17) of the same compound?
A: Its value is “reversed by pretreatment with glibenclamide”.

Q: And the pain perception score ([1]; 0.8 mL colorectal distention, 100 mg/kg, vs vehicle-treated group, FIG. 17)?
A: Its pain perception score is “significantly reduced the pain perception”.

Q: What about the pain perception ([1]; equimolar doses: mesalamine 50, Compound XXXV 130, ADT-OH 80, Compound XXVII 100, 4-HTB 50 mg/kg, vs vehicle-treated group) of the same compound?
A: Its pain perception is “significantly reduced pain perception”.

Q: And the “Disease Activity Index” value ([2]; Compound XXXV 130 mg/kg vs mesalamine 50 mg/kg, ADT-OH 80 mg/kg and their mixture, FIG. 3)?
A: Its value is “almost twice as effective as either mesalamine alone, ADT-OH alone or a mixture of mesalamine and ADT-OH”.

Q: What about the “MPO activity (granulocyte infiltration)” value ([2]; Compound XXXV 130 mg/kg, FIG. 4) of the same compound?
A: Its value is “significantly reduced inflammation”.

Q: And the “every endpoint of FIGS. 7-14 (MPO activity, disease activity score, mRNA expression)” value ([2]; dose equimolar to mesalamine 50 mg/kg, compared with mesalamine)?
A: Its value is “superior to mesalamine in every endpoint”.

Q: What about the “Disease Activity Score” value ([2]; dose-ranging, oral every 12 h for 5 days, equimolar doses of 50 mg/kg and 75 mg/kg, compared with mesalamine, FIG. 1) of the same compound?
A: The value was “superior to mesalamine in reducing the activity score”.

Q: And the “myeloperoxidase (MPO) activity” value ([2]; dose-ranging, oral every 12 h for 5 days, highest doses tested, FIG. 2)?
A: The value was “significantly reduced (almost in half)”.
